Activity calls are given as the source filed them. No cut-off for these calls is given here.
How the values were obtained:
[1] = tested on: HEK293; test: Inhibition of Wnt signalling in HEK293 cells harbouring TCF/beta-catenin luciferase reporter gene assessed as TCF/beta-catenin transcriptional activity at 30 to 60 uM by TOPFlash luciferase assay; format: cell-based; details: Homo sapiens, dose 30-60 µM
[2] = tested on: HT-29; test: Cytotoxicity against human HT-29 cells assessed as cell viability at 1.563 to 50 uM measured after 72 hrs by plate reader method; format: functional, cell-based; details: for IC50: HT-29, 72 h

SMILES | Activity [1] | Activity ([2]; dose 1.563-50 µM) | IC50 [2]
Cc1cc2c(c(=O)o1)[C@H]1C[C@](C)(CC[C@@H]1C(C)C)O2 | Active | – | –
CC(C)[C@H]1CC[C@]2(C)C[C@H]1c1c(cc(/C=C/c3ccccc3)oc1=O)O2 | Active | – | –
Cc1cc2c(c(=O)o1)[C@H]1C[C@](C)(CC[C@H]1C(C)C)O2 | Active | – | –
COc1cc(/C=C/c2ccccc2)oc(=O)c1 | inactive | – | –
CC(C)[C@H]1CC[C@@]2(C)C[C@@H]1c1c(cc(/C=C/c3cccs3)oc1=O)O2 | Active | Active | –
COc1cc(O)c(C(=O)/C=C/c2ccccc2)c2c1[C@@H]1[C@@H](C(C)C)CC[C@](C)(O)[C@@H]1O2 | inactive | – | –
CC(C)[C@H]1CC[C@@]2(C)C[C@@H]1c1c(cc(/C=C/c3ccccc3)oc1=O)O2 | Active | – | 8.2 µM
CC(C)[C@@H]1CC[C@@]2(C)C[C@@H]1c1c(cc(/C=C/c3ccccc3)oc1=O)O2 | Active | – | 32.4 µM
CC1=CC(=O)C(C(C)C)CC1 (racemic) | inactive | – | –
Cc1cc(O)cc(=O)o1 | inactive | – | –
O=C1[C@H](Cc2ccc(O)cc2)N2C(=O)CCN(C(=O)NCc3ccccc3)[C@H]2CN1Cc1cccc2ccccc12 | – | – | 10.8 µM

From ChEMBL document CHEMBL4811288, “Linderapyrone: A Wnt signal inhibitor isolated from Lindera umbellata” (Bioorg Med Chem Lett, 2021)
